Laboratory results from article PMC8026785, “The pharmacokinetics of [^18F]UCB-H revisited in the healthy non-human primate brain” (EJNMMI Research, 2021).
Where “and” joins values, the source holds several entries; their conditions need not be identical. Identical values can stand only once.

Target: T1, SV2A (Macaca fascicularis, UniProt Q4R4X3)
T1 construct: The current study evaluates [^18F]UCB-H pharmacokinetics in healthy NHPs; from tissue; host or cells: brain of living healthy cynomolgus monkeys (in vivo PET)
Experiment: Brain PET kinetic modelling (1TCM, 2TCM, 2TCM-c, Logan), test-retest
Format: in vivo, cynomolgus monkeys (Macaca fascicularis)
Description: All four non-human primates (NHP) underwent a 2-h (2 h) test and retest PET scan; two NHP underwent an additional 4-h (4 h) retest PET scan. Three NHP underwent one 4-h (4 h) displacement PET scan. Arterial blood sampling was performed during test and retest scans with PET imaging spaced by at least 3 weeks between each scan. To this end, the femoral artery opposite to the saphenous vein used for radioligand injection was cannulated. For the 2-h (2 h) scans, we collected in total 28 blood samples of 1 mL: 16 samples during the first 5 min followed by […] every 5 min and […] every 10 min. For the 4 h scans, we collected an additional 6 samples every 20 min during the last two hours (34 samples in total). Larger samples (2 – 3 mL) were collected at 5, 15, 30, 60, 90, 120 min (2 h) and at 180, 240 min (4 h) for metabolite analysis. Displacement of [^18F]UCB-H was done by intravenous (IV) administration 90 min after [^18F]UCB-H injection of a bolus of 30 mg/kg LEV, or of 80 µg/kg (≈250 nmol/kg) or 5 mg/kg (≈15 µmol/kg) of cold [^19F]-UCB-H. Full experimental design of all NHP is outlined in Additional file 1: Table 1.
PET imaging was performed on the microPET FOCUS220 (Siemens) under standard anesthesia and monitoring procedures. Data acquisition started with the IV bolus injection of [^18F]UCB-H (32.9 ± 1.0 MBq/kg, 0.35 ± 0.07 µg/kg). Dynamic PET images were reconstructed using standard OSEM-2D algorithms while correcting for radioactive decay, scatter, attenuation and detectors inhomogeneity, which were measured prior to PET scanning using respectively ^57Co and ^68Ge external sources.
PET image analysis was performed using PMOD software version 3.8 (PMOD Technologies Ltd., Zurich, Suisse). After individual co-registration of PET-MR images, a cynomolgus atlas published by Ballanger and coworkers was normalized to PET images to extract time activity curves in different brain regions. Volumes of interest (VOI) were cerebral white matter (16.7 cm^3), striatum (0.24 cm^3), thalamus (0.89 cm^3), cerebellum (3.83 cm^3), frontal—(2.50 cm^3), parietal—(5.35 cm^3), and temporal (8.22 cm^3) cortex, and whole brain (72.2 cm^3) as a composite region of all regions in the atlas. [^18F]UCB-H pharmacokinetics were evaluated by analyzing the time activity curves of the test- and retest scans using 1- and 2-tissue compartment models (unconstrained and constrained with global K1/k2 coupled fit across all regions, further referred to as 2TCM and 2TCM-c), and Logan graphical analysis with a fixed t* at 60 min [33] using the arterial plasma input function corrected for radio-metabolites to derive the volume of distribution in each region. Percentage standard error (%SE) was estimated from the theoretical parameter covariance matrix. Only reliable estimates (%SE less than 25%) were included in the current analyses. For the three drug studies, percent displacement of the total activity in the whole brain was estimated relative to an average baseline constructed from the two 4 h baseline studies. Briefly, Standardized Uptake Value (SUV) time activity curves (TACs) were calculated for the two baseline and the three displacement studies. Then, each curve was normalized to the SUV at t = 90 min, corresponding to the timeframe immediately before the administration of the drugs in the displacement studies. Baseline curves were averaged and the percent displacement of total activity was calculated as (baseline-displacement)/baseline at a given time post drug administration (see “Results”).
Statistical analysis was performed using R software (version 3.3.1.). Plasma, intact parent fraction and time activity curves were statistically compared between subjects using a one-factor variance analysis. Absolute Test–Retest variability (aTRV) of PET quantification parameters was calculated as ABS(test—retest) / AVERAGE(test, retest). […]

[1] = Cerebellum, Retest, individual NHP
[2] = Cerebellum, Test, individual NHP
[3] = Frontal Cortex, Retest, individual NHP
[4] = Frontal Cortex, Test, individual NHP

T1 sequence (Q4R4X3 whole entry): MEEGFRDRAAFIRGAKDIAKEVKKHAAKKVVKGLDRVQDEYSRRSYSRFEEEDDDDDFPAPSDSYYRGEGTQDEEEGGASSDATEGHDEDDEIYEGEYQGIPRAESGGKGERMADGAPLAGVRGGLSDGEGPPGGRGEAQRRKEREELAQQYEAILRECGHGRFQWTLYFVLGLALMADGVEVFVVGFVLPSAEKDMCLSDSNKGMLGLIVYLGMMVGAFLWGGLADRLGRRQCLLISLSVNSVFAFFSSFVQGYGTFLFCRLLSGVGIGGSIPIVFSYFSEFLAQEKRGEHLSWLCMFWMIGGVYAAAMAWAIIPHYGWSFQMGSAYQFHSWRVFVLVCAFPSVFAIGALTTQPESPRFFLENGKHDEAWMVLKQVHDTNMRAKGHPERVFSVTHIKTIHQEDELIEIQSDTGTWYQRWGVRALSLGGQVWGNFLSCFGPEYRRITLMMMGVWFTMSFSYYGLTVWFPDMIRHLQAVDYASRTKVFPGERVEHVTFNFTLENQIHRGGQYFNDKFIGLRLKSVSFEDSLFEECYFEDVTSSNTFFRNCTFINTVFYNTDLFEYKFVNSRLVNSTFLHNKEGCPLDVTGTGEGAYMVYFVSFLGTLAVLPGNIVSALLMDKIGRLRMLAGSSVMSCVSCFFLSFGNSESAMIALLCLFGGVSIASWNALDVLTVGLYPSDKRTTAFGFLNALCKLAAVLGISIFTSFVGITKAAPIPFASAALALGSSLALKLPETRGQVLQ

**Q.** For `O=C1C[C@H](c2cc(F)c(F)c(F)c2)CN1Cc1ccncc1[18F]` [[^18F]UCB-H], which “aTRV of VT” value (1TCM) is on record?
**A.** above 10%

**Q.** And the “ICC of VT, overall” value (2TCM-c)?
**A.** ~ 0.4

**Q.** And the “aTRV of VT, overall” value (2TCM-c)?
**A.** ~ 17%

**Q.** And the “k3/k4 (surrogate of BPND), average” value (2TCM-c, average)?
**A.** 1.07 ± 0.02 and 1.1

**Q.** What about the “ICC of Logan (t* = 60) VT” value (Cerebellum) of the same compound?
**A.** 0.32

**Q.** What about the “aTRV of Logan (t* = 60) VT” value (Cerebellum) of the same compound?
**A.** 14%

**Q.** What about the “K1 (2TCM)” value [1] of the same compound?
**A.** 0.62 ml/cm^3 /min and 0.26 ml/cm^3 /min and 0.34 ml/cm^3 /min and 0.36 ml/cm^3 /min

**Q.** And the “K1 (2TCM-c)” value [1]?
**A.** 0.58 ml/cm^3 /min and 0.24 ml/cm^3 /min and 0.34 ml/cm^3 /min and 0.36 ml/cm^3 /min

**Q.** What about the “K1/k2 (2TCM)” value [1] of the same compound?
**A.** 6.41 ml/cm^3 and 10.80 ml/cm^3 and 8.77 ml/cm^3

**Q.** What about the “K1/k2 (2TCM-c)” value [1] of the same compound?
**A.** 4.64 ml/cm^3 and 9.07 ml/cm^3 and 10.70 ml/cm^3 and 7.25 ml/cm^3

**Q.** What about the “VT (1TCM)” value [1] of the same compound?
**A.** 12.10 ml/cm^3 and 9.16 ml/cm^3 and 11.41 ml/cm^3 and 8.78 ml/cm^3

**Q.** And the “VT (2TCM)” value [1]?
**A.** 12.28 ml/cm^3

**Q.** What about the “VT (2TCM-c)” value [1] of the same compound?
**A.** 12.24 ml/cm^3 and 18.89 ml/cm^3 and 8.78 ml/cm^3

**Q.** And the “VT (Logan)” value [1]?
**A.** 12.38 ml/cm3 and 11.31 ml/cm3 and 11.82 ml/cm3 and 8.96 ml/cm3

**Q.** And the “k3/k4 (2TCM-c)” value [1]?
**A.** 1.64 and 0.80

**Q.** And the “VT (1TCM)” value (Cerebellum, Retest, mean)?
**A.** 10.4 mL/cm^3

**Q.** What about the “VT (2TCM)” value (Cerebellum, Retest, mean) of the same compound?
**A.** 12.3 mL/cm^3

**Q.** And the “VT (2TCM-c)” value (Cerebellum, Retest, mean)?
**A.** 13.3 mL/cm^3

**Q.** What about the “VT (Logan (t* = 60))” value (Cerebellum, Retest, mean) of the same compound?
**A.** 11.1 mL/cm^3

**Q.** And the “k3/k4 (BPND) (2TCM-c)” value (Cerebellum, Retest, mean)?
**A.** 1.22

**Q.** What about the “K1 (2TCM)” value [2] of the same compound?
**A.** 0.22 ml/cm^3 /min and 0.35 ml/cm^3 /min and 0.39 ml/cm^3 /min and 0.17 ml/cm^3 /min

**Q.** What about the “K1 (2TCM-c)” value [2] of the same compound?
**A.** 0.23 ml/cm^3 /min and 0.33 ml/cm^3 /min and 0.39 ml/cm^3 /min and 0.17 ml/cm^3 /min

**Q.** What about the “K1/k2 (2TCM)” value [2] of the same compound?
**A.** 5.68 ml/cm^3 and 6.39 ml/cm^3 and 10.81 ml/cm^3 and 6.69 ml/cm^3

**Q.** And the “K1/k2 (2TCM-c)” value [2]?
**A.** 4.35 ml/cm^3 and 8.22 ml/cm^3 and 10.99 ml/cm^3 and 7.86 ml/cm^3

**Q.** What about the “VT (1TCM)” value [2] of the same compound?
**A.** 8.70 ml/cm^3 and 9.24 ml/cm^3 and 12.07 ml/cm^3 and 9.02 ml/cm^3

**Q.** And the “VT (2TCM)” value [2]?
**A.** 10.64 ml/cm^3 and 10.48 ml/cm^3

**Q.** And the “VT (2TCM-c)” value [2]?
**A.** 9.72 ml/cm^3

**Q.** What about the “VT (Logan)” value [2] of the same compound?
**A.** 10.54 ml/cm3 and 10.32 ml/cm3 and 13.27 ml/cm3 and 10.85 ml/cm3

**Q.** And the “k3/k4 (2TCM)” value [2]?
**A.** 0.87

**Q.** What about the “k3/k4 (2TCM-c)” value [2] of the same compound?
**A.** 1.24

**Q.** And the “VT (1TCM)” value (Cerebellum, Test, mean)?
**A.** 9.8 mL/cm^3

**Q.** And the “VT (2TCM)” value (Cerebellum, Test, mean)?
**A.** 10.6 mL/cm^3

**Q.** And the “VT (2TCM-c)” value (Cerebellum, Test, mean)?
**A.** 9.70 mL/cm^3

**Q.** What about the “VT (Logan (t* = 60))” value (Cerebellum, Test, mean) of the same compound?
**A.** 11.2 mL/cm^3

**Q.** And the “k3/k4 (BPND) (2TCM-c)” value (Cerebellum, Test, mean)?
**A.** 1.24

**Q.** What about the “K1 (2TCM)” value [3] of the same compound?
**A.** 0.45 ml/cm^3 /min and 0.42 ml/cm^3 /min and 0.31 ml/cm^3 /min and 0.37 ml/cm^3 /min

**Q.** What about the “K1 (2TCM-c)” value [3] of the same compound?
**A.** 0.48 ml/cm^3 /min and 0.45 ml/cm^3 /min and 0.31 ml/cm^3 /min and 0.37 ml/cm^3 /min

**Q.** What about the “K1/k2 (2TCM)” value [3] of the same compound?
**A.** 12.79 ml/cm^3 and 10.20 ml/cm^3

**Q.** And the “K1/k2 (2TCM-c)” value [3]?
**A.** 4.64 ml/cm^3 and 9.07 ml/cm^3 and 10.70 ml/cm^3 and 7.25 ml/cm^3

**Q.** What about the “VT (1TCM)” value [3] of the same compound?
**A.** 14.34 ml/cm^3 and 16.78 ml/cm^3 and 11.35 ml/cm^3 and 12.88 ml/cm^3

**Q.** What about the “VT (2TCM)” value [3] of the same compound?
**A.** 14.38 ml/cm^3 and 12.14 ml/cm^3 and 12.88 ml/cm^3

**Q.** What about the “VT (2TCM-c)” value [3] of the same compound?
**A.** 14.39 ml/cm^3 and 18.59 ml/cm^3 and 12.71 ml/cm^3 and 12.90 ml/cm^3

**Q.** And the “VT (Logan)” value [3]?
**A.** 14.05 ml/cm3 and 20.21 ml/cm3 and 11.72 ml/cm3 and 13.18 ml/cm3

**Q.** What about the “k3/k4 (2TCM-c)” value [3] of the same compound?
**A.** 2.10 and 1.07 and 0.78

**Q.** What about the “K1 (2TCM)” value [4] of the same compound?
**A.** 0.24 ml/cm^3 /min and 0.53 ml/cm^3 /min and 0.38 ml/cm^3 /min and 0.22 ml/cm^3 /min

**Q.** What about the “K1 (2TCM-c)” value [4] of the same compound?
**A.** 0.25 ml/cm^3 /min and 0.55 ml/cm^3 /min and 0.38 ml/cm^3 /min and 0.22 ml/cm^3 /min

**Q.** What about the “K1/k2 (2TCM)” value [4] of the same compound?
**A.** 8.05 ml/cm^3 and 13.17 ml/cm^3 and 10.76 ml/cm^3 and 11.87 ml/cm^3

**Q.** What about the “K1/k2 (2TCM-c)” value [4] of the same compound?
**A.** 4.35 ml/cm^3 and 8.22 ml/cm^3 and 10.99 ml/cm^3 and 7.86 ml/cm^3

**Q.** What about the “VT (1TCM)” value [4] of the same compound?
**A.** 10.97 ml/cm^3 and 18.41 ml/cm^3 and 12.04 ml/cm^3 and 13.68 ml/cm^3

**Q.** And the “VT (2TCM)” value [4]?
**A.** 12.58 ml/cm^3 and 19.94 ml/cm^3

**Q.** What about the “VT (2TCM-c)” value [4] of the same compound?
**A.** 11.41 ml/cm^3 and 18.77 ml/cm^3 and 14.10 ml/cm^3

**Q.** What about the “VT (Logan)” value [4] of the same compound?
**A.** 12.20 ml/cm3 and 19.36 ml/cm3 and 13.14 ml/cm3 and 15.28 ml/cm3

**Q.** What about the “k3/k4 (2TCM)” value [4] of the same compound?
**A.** 0.56

**Q.** What about the “k3/k4 (2TCM-c)” value [4] of the same compound?
**A.** 1.63 and 1.51 and 0.61

**Q.** What about the “ICC of 2TCM-c VT” value (Frontal cortex) of the same compound?
**A.** 0.84

**Q.** What about the “ICC of Logan (t* = 60) VT” value (Frontal cortex) of the same compound?
**A.** 0.89

**Q.** What about the “aTRV of 2TCM-c VT” value (Frontal cortex) of the same compound?
**A.** 11%

**Q.** And the “aTRV of Logan (t* = 60) VT” value (Frontal cortex)?
**A.** 11%

**Q.** What about the “VT (1TCM)” value (Frontal cortex, Retest, mean) of the same compound?
**A.** 13.8 mL/cm^3
